Reference: the supplement of paper PMC10307832

How the values were obtained:
Experiment in all cases: relative viability (nuclei count vs DMSO), 5 days (fraction); higher = more cells survive
NCI-H1563 = test system: NCI-H1563
Summary of the method: (§1)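 Lung cancer cell lines in 1536-well plates got either a single drug or a fixed anchor-drug dose together with five library-drug doses (not always all listed) in √10 steps, by pin tool, on the day after seeding. Nuclei were counted after 5 days, and relative viability is the treated-to-vehicle ratio of nuclei counts. Values are medians of duplicate plates.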

NCI-H1623 = test system: NCI-H1623
Summary of the method: as §1

NCI-H2342 = test system: NCI-H2342
Summary of the method: as §1

NCI-H522 = test system: NCI-H522
Summary of the method: as §1

SW 900 = test system: SW 900
Summary of the method: as §1

A549 = test system: A549
Summary of the method: as §1

Calu-6 = test system: Calu-6
Summary of the method: as §1

EBC-1 = test system: EBC-1
Summary of the method: as §1

IA-LM = test system: IA-LM
Summary of the method: as §1

NCI-H1299 = test system: NCI-H1299
Summary of the method: as §1

NCI-H1703 = test system: NCI-H1703
Summary of the method: as §1

NCI-H1648 = test system: NCI-H1648
Summary of the method: as §1

`O=C(O)CCCCC(CCSCc1ccccc1)SCc1ccccc1` (stereo not drawn) [CPI-613] + Cc1nc(Nc2ncc(C(=O)Nc3c(C)cccc3Cl)s2)cc(N2CCN(CCO)CC2)n1 [Dasatinib] (partner 0.075 µM) showed a relative viability (NCI-H1563; first compound 5 µM) of 0.455, a relative viability (NCI-H1563; first compound 15.81 µM) of 0.443 and a relative viability (NCI-H1563; first compound 50 µM) of 0.436. For the same compound, the relative viability (NCI-H1563; first compound 158.11 µM) was 0.461, the relative viability (NCI-H1563; first compound 500 µM) was 0.456 and the relative viability (NCI-H1623; first compound 5 µM) was 0.592. For the same compound, the relative viability (NCI-H1623; first compound 15.81 µM) was 0.566, the relative viability (NCI-H1623; first compound 50 µM) was 0.549 and the relative viability (NCI-H1623; first compound 158.11 µM) was 0.39. For the same compound, the relative viability (NCI-H1623; first compound 500 µM) was 0.569, the relative viability (NCI-H2342; first compound 5 µM) was 0.315 and the relative viability (NCI-H2342; first compound 15.81 µM) was 0.275. For the same compound, the relative viability (NCI-H2342; first compound 50 µM) was 0.315, the relative viability (NCI-H2342; first compound 158.11 µM) was 0.286 and the relative viability (NCI-H2342; first compound 500 µM) was 0.294. The relative viability (NCI-H522; first compound 5 µM) was 0.818, the relative viability (NCI-H522; first compound 15.81 µM) was 1.01 and the relative viability (NCI-H522; first compound 50 µM) was 0.922. For the same compound, the relative viability (NCI-H522; first compound 158.11 µM) was 0.84, the relative viability (NCI-H522; first compound 500 µM) was 0.494 and the relative viability (SW 900; first compound 5 µM) was 0.692. It also gave a relative viability (SW 900; first compound 15.81 µM) of 0.542, a relative viability (SW 900; first compound 50 µM) of 0.686 and a relative viability (SW 900; first compound 158.11 µM) of 0.262. It also gave a relative viability (SW 900; first compound 500 µM) of 0.121.

In the case of `Cc1cnc(-c2cnc(NCCNc3ccc(C#N)cn3)nc2-c2ccc(Cl)cc2Cl)[nH]1` + COc1cc2c(Oc3ccc(NC(=O)C4(C(=O)Nc5ccc(F)cc5)CC4)cc3F)ccnc2cc1OCCCN1CCOCC1 [Foretinib] (partner 0.25 µM), the relative viability (A549; first compound 0.08 µM) is reported as 0.984, the relative viability (A549; first compound 0.253 µM) is reported as 0.963 and the relative viability (A549; first compound 0.8 µM) is reported as 1.02. For the same compound, the relative viability (A549; first compound 2.53 µM) was 0.451, the relative viability (Calu-6; first compound 0.08 µM) was 0.906 and the relative viability (Calu-6; first compound 0.253 µM) was 0.826. The relative viability (Calu-6; first compound 0.8 µM) was 0.874, the relative viability (Calu-6; first compound 2.53 µM) was 0.784 and the relative viability (EBC-1; first compound 0.08 µM) was 0.0986. It also gave a relative viability (EBC-1; first compound 0.253 µM) of 0.105, a relative viability (EBC-1; first compound 0.8 µM) of 0.102 and a relative viability (EBC-1; first compound 2.53 µM) of 0.112. It also gave a relative viability (IA-LM; first compound 0.08 µM) of 0.95, a relative viability (IA-LM; first compound 0.253 µM) of 1.09 and a relative viability (IA-LM; first compound 0.8 µM) of 1.44. The relative viability (IA-LM; first compound 2.53 µM) was 0.988, the relative viability (NCI-H1299; first compound 0.08 µM) was 1.11 and the relative viability (NCI-H1299; first compound 0.253 µM) was 1.05. The relative viability (NCI-H1299; first compound 0.8 µM) was 1.09, the relative viability (NCI-H1299; first compound 2.53 µM) was 1.06 and the relative viability (NCI-H1563; first compound 0.08 µM) was 0.925. For the same compound, the relative viability (NCI-H1563; first compound 0.253 µM) was 0.885, the relative viability (NCI-H1563; first compound 0.8 µM) was 0.951 and the relative viability (NCI-H1563; first compound 2.53 µM) was 1.01. The relative viability (NCI-H1623; first compound 0.08 µM) was 0.785, the relative viability (NCI-H1623; first compound 0.253 µM) was 0.828 and the relative viability (NCI-H1623; first compound 0.8 µM) was 0.821. For the same compound, the relative viability (NCI-H1623; first compound 2.53 µM) was 0.849, the relative viability (NCI-H1703; first compound 0.08 µM) was 0.333 and the relative viability (NCI-H1703; first compound 0.253 µM) was 0.383. For the same compound, the relative viability (NCI-H1703; first compound 0.8 µM) was 0.362, the relative viability (NCI-H1703; first compound 2.53 µM) was 0.433 and the relative viability (NCI-H2342; first compound 0.08 µM) was 0.974. The relative viability (NCI-H2342; first compound 0.253 µM) was 0.903, the relative viability (NCI-H2342; first compound 0.8 µM) was 1.03 and the relative viability (NCI-H2342; first compound 2.53 µM) was 1.07. For the same compound, the relative viability (SW 900; first compound 0.08 µM) was 0.781, the relative viability (SW 900; first compound 0.253 µM) was 0.78 and the relative viability (SW 900; first compound 0.8 µM) was 0.789. The relative viability (SW 900; first compound 2.53 µM) was 0.717.

`O=C(O)CCCCC(CCSCc1ccccc1)SCc1ccccc1` (stereo not drawn) [CPI-613] + O=C(c1cc(Cc2n[nH]c(=O)c3ccccc23)ccc1F)N1CCN(C(=O)C2CC2)CC1 [Olaparib] (partner 8 µM) gave a relative viability (A549; first compound 5 µM) of 0.301, a relative viability (A549; first compound 15.81 µM) of 0.371 and a relative viability (A549; first compound 50 µM) of 0.301. For the same compound, the relative viability (A549; first compound 158.11 µM) was 0.335, the relative viability (A549; first compound 500 µM) was 0.327 and the relative viability (Calu-6; first compound 5 µM) was 0.525. For the same compound, the relative viability (Calu-6; first compound 50 µM) was 0.521, the relative viability (Calu-6; first compound 158.11 µM) was 0.433 and the relative viability (Calu-6; first compound 500 µM) was 0.401. The relative viability (EBC-1; first compound 5 µM) was 0.698, the relative viability (EBC-1; first compound 15.81 µM) was 0.33 and the relative viability (EBC-1; first compound 50 µM) was 0.589. It also gave a relative viability (EBC-1; first compound 158.11 µM) of 0.512, a relative viability (EBC-1; first compound 500 µM) of 0.49 and a relative viability (IA-LM; first compound 5 µM) of 0.881. The relative viability (IA-LM; first compound 15.81 µM) was 0.751, the relative viability (IA-LM; first compound 50 µM) was 0.866 and the relative viability (IA-LM; first compound 158.11 µM) was 0.537. The relative viability (IA-LM; first compound 500 µM) was 0.656, the relative viability (NCI-H1299; first compound 5 µM) was 0.942 and the relative viability (NCI-H1299; first compound 15.81 µM) was 1.01. For the same compound, the relative viability (NCI-H1299; first compound 50 µM) was 0.903, the relative viability (NCI-H1299; first compound 158.11 µM) was 0.909 and the relative viability (NCI-H1299; first compound 500 µM) was 0.968. For the same compound, the relative viability (NCI-H1648; first compound 5 µM) was 0.878, the relative viability (NCI-H1648; first compound 15.81 µM) was 0.976 and the relative viability (NCI-H1648; first compound 50 µM) was 1.01. It also gave a relative viability (NCI-H1648; first compound 158.11 µM) of 0.255, a relative viability (NCI-H1648; first compound 500 µM) of 0.0437 and a relative viability (NCI-H1703; first compound 5 µM) of 0.411. For the same compound, the relative viability (NCI-H1703; first compound 15.81 µM) was 0.453, the relative viability (NCI-H1703; first compound 50 µM) was 0.499 and the relative viability (NCI-H1703; first compound 158.11 µM) was 0.36. The relative viability (NCI-H1703; first compound 500 µM) was 0.403, the relative viability (NCI-H2342; first compound 5 µM) was 0.472 and the relative viability (NCI-H2342; first compound 15.81 µM) was 0.432. It also gave a relative viability (NCI-H2342; first compound 50 µM) of 0.5, a relative viability (NCI-H2342; first compound 158.11 µM) of 0.461 and a relative viability (NCI-H2342; first compound 500 µM) of 0.412. The relative viability (NCI-H522; first compound 5 µM) was 0.589, the relative viability (NCI-H522; first compound 15.81 µM) was 0.533 and the relative viability (NCI-H522; first compound 50 µM) was 0.681. It also gave a relative viability (NCI-H522; first compound 158.11 µM) of 0.453, a relative viability (NCI-H522; first compound 500 µM) of 0.346 and a relative viability (SW 900; first compound 5 µM) of 0.873. It also gave a relative viability (SW 900; first compound 50 µM) of 0.823, a relative viability (SW 900; first compound 158.11 µM) of 0.33 and a relative viability (SW 900; first compound 500 µM) of 0.0124.
